Test results as given in patent publication US20060069132A1, “Azolecarboxamide herbicides” (priority 2004, published 2006).

Tests used:
[1] = system: morningglory; assay: Test C pre-/postemergence herbicide test; assay type: in vivo, Ipomoea coccinea; parameters: key to Plant response rating, Morningglory: 0 = no effect, 100 = complete control; conditions: for Morningglory plant response rating: 500 g ai/ha
How it was run: (§1)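 Visual injury scores run from 0 (no effect) to 100 (complete control), assessed relative to untreated controls 12 to 14 days after treatment in the greenhouse. Chemicals were formulated in a non-phytotoxic solvent mixture with surfactant and applied to soil after planting or to emerged plants at the 1- to 4-leaf stage.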

[2] = system: morningglory; assay: Test B pre-/postemergence herbicide test; assay type: in vivo, Ipomoea coccinea; conditions: for Morningglory plant response rating: postemergence, visual rating
How it was run: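 Test chemicals in a non-phytotoxic solvent mixture with surfactant were applied preemergence to seeded species and postemergence to plants 2-18 cm tall (1- to 4-leaf stage); rice and barnyardgrass were also tested in a flooded paddy at the 2-leaf stage. Visual rating versus controls after 13-15 days in greenhouse, scale 0 (no effect) to 100 (complete control).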

[3] = system: bermudagrass; assay: Test C pre-/postemergence herbicide test; assay type: in vivo, Cynodon dactylon
How it was run: as §1

[4] = system: rice; assay: Test B pre-/postemergence herbicide test; assay type: in vivo, Oryza sativa; conditions: preemergence
How it was run: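 Evaluation is visual, comparing treated with control plants on a scale where 0 means no effect and 100 means full control. Treatments were preemergence, or postemergence on seedlings 2–18 cm tall, and held 13–15 days in the greenhouse.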

[5] = system: barnyardgrass; assay: Test B flooded paddy test; assay type: in vivo, Echinochloa crus-galli; conditions: 1000 g ai/ha, visual rating, scale 0 to 100 (0 no effect, 100 complete control), 13 to 15 days
How it was run: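 Paddy species grown to the 2-leaf stage under flooding; blackgrass sprayed postemergence at 2–18 cm (1- to 4-leaf stage). Plants kept in a greenhouse for 13 to 15 days, then visually rated against controls on 0 (no effect) to 100 (complete control).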

[6] = system: smallflower umbrella sedge; assay: Test C flooded paddy test; assay type: in vivo, Cyperus difformis; conditions: for Plant response rating, Sedge, Umbrella: 500 g ai/ha, visual rating after 12 to 14 days
[7] = system: large crabgrass; assay: Test A pre-/postemergence herbicide test; assay type: in vivo, Digitaria sanguinalis
How it was run: (§2)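 Pre: seeded sandy loam, directed soil spray, compound in non-phytotoxic solvent + surfactant. Post: 1–2-leaf plants (2–10 cm), sprayed to runoff. Greenhouse ~10 d; visual injury vs untreated, 0–100 scale.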

[8] = system: velvetleaf; assay: Test A pre-/postemergence herbicide test; assay type: in vivo, Abutilon theophrasti
How it was run: as §2

[9] = Preemergence, scale 0 to 100, 0 no effect, 100 complete control
[10] = 125 g ai/ha, scale 0 (no effect) to 100 (complete control)
[11] = 500 g ai/ha, scale 0 (no effect) to 100 (complete control)
[12] = 125 g ai/ha, scale 0 (no effect) to 100 (complete control), visual, 12 to 14 days, preemergence
[13] = 250 g ai/ha, scale 0 to 100 (0 no effect, 100 complete control), visual, 12 to 14 days, preemergence
[14] = Preemergence, 500 g ai/ha, scale 0 to 100, 0 no effect, 100 complete control
[15] = 500 g ai/ha, visual rating 0-100, 0 no effect, 100 complete control
[16] = 62 g ai/ha, scale 0 to 100 (0 no effect, 100 complete control)
[17] = 125 g ai/ha, scale 0 to 100 (0 no effect, 100 complete control)
[18] = 250 g ai/ha, scale of 0 to 100, 0 is no effect, 100 is complete control
[19] = scale 0 to 100 (0 no effect, 100 complete control)
[20] = Postemergence, 250 g ai/ha, scale 0 to 100, 0 no effect, 100 complete control
[21] = postemergence, 125 g ai/ha, scale 0 to 100
[22] = postemergence, 62 g ai/ha, scale 0 to 100
[23] = Postemergence, 500 g ai/ha, visual rating after 13 to 15 days, scale 0 (no effect) to 100 (complete control)
[24] = preemergence, 125 g ai/ha, 0 to 100 scale, 0 is no effect, 100 is complete control
[25] = 125 g ai/ha, 0 to 100 scale, 0 is no effect, 100 is complete control
[26] = Postemergence, 500 g ai/ha, 0 to 100 scale, 0 no effect, 100 complete control
[27] = Postemergence, 2000 g ai/ha, 0 to 100 scale, 0 no effect, 100 complete control
[28] = Preemergence, 500 g ai/ha, visual rating, 0 to 100 scale (0 no effect, 100 complete control)
[29] = Preemergence, 2000 g ai/ha, visual rating, 0 to 100 scale (0 no effect, 100 complete control)
[30] = Preemergence, 2000 g ai/ha, 0 to 100 scale, 0 no effect, 100 complete control

| Compound | Morningglory plant response rating [1, 9] | Morningglory plant response rating [2, 10] | Morningglory plant response rating [2, 11] | Plant response rating, Bermudagrass [3, 12] | Plant response rating, Bermudagrass [3, 13] | Bermudagrass plant response rating [3, 14] | Plant response rating, Rice [4, 15] | Barnyardgrass plant response rating [5] | Sedge, Umbrella plant response rating [6, 16] | Sedge, Umbrella plant response rating [6, 18] | Plant response rating, Sedge, Umbrella [6, 19] | Plant response rating, Morningglory [1, 20] | Plant response rating, Morningglory [1, 21] | Plant response rating, Morningglory [1, 22] | Plant response rating, Morningglory [2, 23] | Plant response rating, Morningglory [2, 24] | Plant response rating, Rice [4, 25] | Crabgrass, Large plant response rating [7, 26] | Plant response rating, Crabgrass, Large [7, 27] | Crabgrass, Large plant response rating [7, 28] | further results |
| --- | --- | --- | --- | --- | --- | --- | --- | --- | --- | --- | --- | --- | --- | --- | --- | --- | --- | --- | --- | --- | --- |
| CCc1nn(C(C)(C)C)cc1C(=O)Nc1cccc(C(C)=NO)c1 [Compound 188] | 75 | 20 | 60 | 100 | 100 | 100 | 70 | 60 | 30 | 80 | 85 |  |  |  |  |  |  |  |  |  | Plant response rating, Morningglory ([1]; 62 g ai/ha, preemergence, scale 0 to 100): 0; Morningglory plant response rating (0 to 100 scale) ([2]; 125 g ai/ha, 0 = no effect, 100 = complete control, preemergence): 10; Plant response rating, Bermudagrass ([3]; 62 g ai/ha, preemergence, scale 0 to 100, 0 no effect, 100 complete control): 75; Rice plant response rating (0 to 100 scale) ([4]; 125 g ai/ha, 0 = no effect, 100 = complete control): 50; Sedge, Umbrella plant response rating [6, 17]: 75 |
| CCn1nc(C(C)(C)C)cc1C(=O)Nc1cccc(C(=O)OC)c1 [Compound 81] |  | 0 |  |  |  |  |  | 50 | 70 | 80 | 80 | 10 | 10 | 10 | 30 | 10 | 0 |  |  |  | Bermudagrass plant response rating ([3]; Postemergence, 250 g ai/ha, scale 0 to 100): 20; Plant response rating, Bermudagrass [3, 21]: 0; Plant response rating, Bermudagrass ([3]; postemergence, 31 g ai/ha, scale 0 to 100): 0; Plant response rating, Bermudagrass [3, 22]: 0; Sedge, Umbrella plant response rating ([6]; 125 g ai/ha, scale of 0 to 100, 0 is no effect, 100 is complete control): 70 |
| CCN(CC)C(=O)c1cccc(NC(=O)c2cc(C(C)(C)C)nn2CC)n1 [Compound 145] | 30 | 0 | 20 | 60 | 80 | 90 | 20 | 70 |  |  |  |  |  |  |  | 30 | 0 | 30 | 85 | 70 | Plant response rating (0 = no effect, 100 = complete control), Morningglory ([1]; 62 g ai/ha, preemergence): 0; Plant response rating, Morningglory [1, 12]: 0; Plant response rating, Morningglory ([2]; 500 g ai/ha, visual rating 0-100, 0 no effect, 100 complete control, preemergence): 40; Plant response rating (0 = no effect, 100 = complete control), Bermudagrass ([3]; 62 g ai/ha, preemergence): 20; Crabgrass, Large plant response rating [7, 29]: 90; Velvetleaf plant response rating [8, 26]: 30; Plant response rating, Velvetleaf [8, 27]: 55; Velvetleaf plant response rating [8, 29]: 90; Velvetleaf plant response rating ([8]; preemergence, 500 g ai/ha, visual injury, 0 to 100 scale (0 no effect, 100 complete control)): 75 |
| C#CCOC(=O)c1cccc(NC(=O)c2cc(C(C)(C)C)nn2CC)c1 [Compound 84] |  | 30 |  |  |  |  |  | 10 |  |  |  | 0 | 0 | 0 | 60 | 0 | 0 | 20 | 20 | 0 | Morningglory plant response rating ([1]; Postemergence, scale 0 to 100): 0; Plant response rating, Bermudagrass [3, 20]: 0; Crabgrass, Large plant response rating [7, 30]: 0; Velvetleaf plant response rating [8, 26]: 20; Plant response rating, Velvetleaf [8, 27]: 20; Velvetleaf plant response rating [8, 28]: 0; Velvetleaf plant response rating [8, 29]: 0 |
| CCn1nc(C(C)(C)C)cc1C(=O)Nc1cc(C#N)ccc1F [Compound 140] | 0 | 0 | 0 | 0 | 60 | 85 | 70 | 70 | 0 | 45 | 65 |  |  |  |  |  | 0 |  |  |  | Plant response rating (0 = no effect, 100 = complete control), Morningglory ([1]; 62 g ai/ha, preemergence): 0; Plant response rating, Morningglory [1, 12]: 0; Plant response rating (0 = no effect, 100 = complete control), Bermudagrass ([3]; 62 g ai/ha, preemergence): 0; Sedge, Umbrella plant response rating [6, 17]: 20 |
| C=CCOC(=O)c1cccc(NC(=O)c2cc(C(C)(C)C)nn2CC)c1 [Compound 85] |  | 50 |  |  |  |  |  | 40 |  |  |  | 60 | 40 | 10 | 100 | 0 | 0 | 20 | 30 | 0 | Morningglory plant response rating ([1]; Postemergence, scale 0 to 100): 80; Bermudagrass plant response rating ([3]; Postemergence, 500 g ai/ha, scale 0 to 100): 70; Plant response rating, Bermudagrass [3, 21]: 65; Plant response rating, Bermudagrass [3, 22]: 0; Crabgrass, Large plant response rating [7, 30]: 5; Velvetleaf plant response rating [8, 26]: 30; Plant response rating, Velvetleaf [8, 27]: 20; Velvetleaf plant response rating [8, 28]: 0; Velvetleaf plant response rating [8, 29]: 0 |
